# Key:
# MHC class II = conditions: prior-art small molecules with H-donor properties; cited from earlier work
# HLA-DR1 (DRB1*0101) = target: T1, HLA-DR1 (DRB1*0101) (Homo sapiens, UniProt P01903+P01911, A100R/D57E/F55L/F60I/F76Y/I96L/L162R/M171V/P40L/Q125E/R42F/V115G/Y59C); assay: HLA-DR1-restricted T-cell response after catalysed loading of 721.221 cells (EvHA/X5, hCII19.3 T-cells); assay type: cell-based; conditions: for catalytic activity on HLA-DR1, dose-activity curves of T-cell stimulation: HA306-318 on 721.221 cells, EvHA/X5 T-cells
# T1 construct: HLA-DR-expressing 721.221 cells; endogenous in cells; host or cells: 721.221 cells
# Description: In the present comparison test, the enhancement of the T-cell response by catalysis of the loading of HLA-expressing cells was investigated. […] Either HA306-318 (see also FIG. 3, left-hand panel) or CO260-273 (see also FIG. 3, right-hand panel) was used as peptide antigen. After the loading, the cells were washed and used to stimulate EvHA/X5 and hCII19.3 cells, respectively.
# In order to investigate the catalysis of a HLA-DR1 (DRB1*0101)-restricted T-cell response by various catalytically active adamantyl compounds, dose-activity curves of the catalysis of a HLA-DR1 (DRB1*0101)-restricted T-cell response were prepared. The experiment was carried out analogously to Comparison Experiment 3.3, the peptide antigen HA306-318 being loaded onto 721.221 cells in order thereby to stimulate EvHA/X5 T-cells. […] Because the position of the dose-activity curves is evidently also determined by the side chain, a modulating activity can be attributed thereto.
# [1] = target: T2, soluble HLA-DR1 (DRA1*0101, DRB1*0101) (Homo sapiens, UniProt P01903+P01911, A100R/D57E/F55L/F60I/F76Y/I96L/L162R/M171V/P40L/Q125E/R42F/V115G/Y59C); assay: Loading of empty soluble HLA-DR1 with biotinylated HA306-318 peptide, sandwich ELISA; assay type: biochemical
# T2 construct: shortened α- and […]-chains without the cytoplasmatic and transmembrane portion of the MHC molecule; made in house; host or cells: S2 insect cells
# Protocol: In order to monitor catalysis of the loading of HLA-DR molecules by compounds of formulae I, IA, II, III and IV1 to IV3, empty, soluble DR molecules were incubated with biotinylated, high-affinity peptide, and these were then detected in a sandwich ELISA for the MHC complexes.
# All the batches were then adjusted to a final volume of 10 μl with 2% BSA-PO4^3− buffer (in the case of HLA-DR1 only with PO4^3− buffer). The reaction was started by incubation at 37° C. in a thermocycler. After 40 minutes, the incubation was terminated and the loading reaction was stopped by storage on ice and addition of 50 μl of ice-cold 1% BSA-PBS.
# The detection of bound peptide was carried out by means of a sandwich ELISA. […] Between these steps, the plate was washed twice with PBS-0.05% Tween with the aid of a PW plate-washing device (Tecan Industries) and, before filling with fresh solution, all remaining liquid residues were removed by tapping on Scott®Natura paper towels (Hakle-Kimberly Deutschland GmbH). After blocking of non-specific binding sites, the plate was washed three times and filled with 50 μl/well of 1% BSA-PBS. 2×25 μl per reaction batch were transferred to the plate as double values and were carefully mixed thereon (total volume per well: 75 μl). From each filled series, a further 25 μl/well were then again titrated on the plate in a series of two-stage dilutions (final volume per well: 50 μl). The plates so filled were then stored for 2 hours at 4° C. under stationary conditions. Each plate was then washed six times as described above and filled with 80 μl/well of Eu^3+-streptavidin staining solution (europium-streptavidin stock solution diluted 1:10,000 with 1% BSA-PBS) and incubated for 30 minutes at room temperature (RT). After washing for a further eight times, 100 μl/well of fluorescence-activated solution (enhancer) were then added and the signal was measured by means of a Victor^2-multilabelcounter (Wallac Oy) at an excitation wavelength of 340 nm and an emission wavelength of 615 nm in time-resolving mode.
# The following experiment was therefore carried out. One catalyst in a fixed concentration of 0.05 mM was introduced into each of a number of batches for loading HLA-DR1 with HA-biot. The same concentration of a second catalyst was then added to each batch. As controls, 1×1% DMSO was added and, as negative control, a reaction mixture was prepared with 2×1% DMSO. The reaction mixtures were then incubated for 40 minutes as already described and the load was measured in a sandwich ELISA.
# The resulting load was then determined in an ELISA using biotinylated peptide (see FIG. 1).
# The amount of peptide/MHC complexes formed within this time was then determined by means of an ELISA assay (capture antibody: anti-HLA-DR; detection: fluorescent-labelled streptavidin). The activities of the individual compounds were grouped on the basis of the dose/activity curves obtained thereby.
# [2] = target: T3, soluble HLA-DR1 (DRB1*0101) (Homo sapiens, UniProt P01903+P01911, A100R/D57E/F55L/F60I/F76Y/I96L/L162R/M171V/P40L/Q125E/R42F/V115G/Y59C); assay: MHC loading assay for identifying immunotoxic compounds (4 hours, ELISA); assay type: biochemical; conditions: biotinylated HA306-318
# T3 construct: shortened α- and […]-chains without the cytoplasmatic and transmembrane portion of the MHC molecule; made in house; host or cells: S2 insect cells
# [3] = target: T4, HLA-DR1 (DRB1*0101) on L57.23 cells (Homo sapiens, UniProt P01903+P01911, A100R/D57E/F55L/F60I/F76Y/I96L/L162R/M171V/P40L/Q125E/R42F/V115G/Y59C); assay: Loading of HLA-DR1 on the cell surface of fibroblast cells with biotinylated peptide, flow cytometry; assay type: cell-based; conditions: 4 hours, 37° C., active at markedly less than a tenth of the pCP concentration
# T4 construct: expressed in transfected cells; host or cells: L57.23 fibroblast cells
# Protocol: (§1) The catalytic properties of found substances on the loading of MHC class II molecules located on cells was determined in cell loading experiments. To this end, from 50,000 to 100,000 cells in 50 μl of DMEM were mixed with 50 μl of 24 μM HA-biot. dissolved in DMEM and 50 μl of catalyst solution (different concentrations dissolved in DMEM with a maximum DMSO content of 3%) and incubated for 4 hours at 37° C. and 10% CO2. As controls, only 50 μl of peptide solution and 50 μl of DMEM were added to cells in several batches. At the end of the incubation time, the cells were centrifuged off for 5 minutes at 1300 rpm, and supernatant medium was removed. […] After removal of the supernatant, the cell pellets were again detached and taken up in 50 μl/well of streptavidin-phycoerythrin solution (SA-PE stock solution (1 mg/ml) diluted 1:200 with 2% FCS-PBS). Staining was carried out for 30 minutes at 4° C. with the exclusion of light, in order to avoid excessive decomposition of the fluorescent dyes. […] The cells were then analysed using a continuous-flow cytometer. […]
# [4] = target: T5, HLA-DR4 (DRB1*0401) on L243.6 cells (Homo sapiens, UniProt P01903+P01911, A100K/A169T/F76Y/I96L/K127E/L162R/M171V/N62H/P40V/Q125Y/R42H/S133A/S149N/S66Y/V115G/V209L/W38E); assay: Loading of HLA-DR4 on the cell surface of fibroblast cells with biotinylated peptide, flow cytometry; assay type: cell-based; conditions: 4 hours, 37° C., active at markedly less than a tenth of the pCP concentration
# T5 construct: expressed in transfected cells; host or cells: L243.6 fibroblast cells
# Protocol: as §1
# [5] = target: T6, empty, soluble HLA-DR1 complexes (Homo sapiens, UniProt P01903+P01911, A100R/D57E/F55L/F60I/F76Y/I96L/L162R/M171V/P40L/Q125E/R42F/V115G/Y59C); assay: High-throughput HLA-DR1 loading test of the substance library and validation of hits; assay type: biochemical; conditions: final concentration of 0.4 mM
# T6 construct: shortened α- and […]-chains without the cytoplasmatic and transmembrane portion of the MHC molecule; made in house; host or cells: S2 insect cells
# Protocol: The compounds of formulae I, IA, II, III and IV1 to IV3 to be tested were supplied in 384-well plates in the form of a 160 mM starting library, dissolved in DMSO, from which an aliquot library had to be prepared. By manually removing 2 μl/well and diluting with 38 μl/well of DMSO, a 8 mM stock library was prepared, which was used for all further tests. In order to analyse the compounds of formulae I, IA, II, III and IV1 to IV3 that were present for their effect on MHC class II molecules, a high-throughput method based on a HLA-DR1 loading test was used. To this end, two 384-well Nunc-Maxisorp plates (ELISA plates) per library plate were coated overnight at 4° C. with 60 μl/well of monoclonal anti-HLA-DR antibody (L243 stock solution (1 mg/ml) diluted 1:500 in 100 mM NaHCO3). The plates were then washed three times by immersion in PBS-0.05% Tween solution and removal of air bubbles by tapping the plate against the wall of the washing vessel. Remaining washing solution was removed by beating the plates on paper towels, and 80 μl/well of 2% BSA-PBS were introduced. Non-specific binding was to be prevented by incubation at 37° C. for at least one hour. […] Excess staining solution was then removed by washing eight times with PBS-0.05% Tween, and 80 μl/well of fluorescence-activated solution (enhancer) were added manually by means of a pipette. […]
compound,measurement,setting,value
Oc1ccccc1 [phenol],concentration required for use,MHC class II,30 mM
"CC(C)(O)C1CCC2(C)C(C1)C2(Cl)Cl (stereo not drawn) [#4230, 2-(7,7-dichloro-6-methyl-bicyclo[4.1.0]heptan-3-yl)-propan-2-ol]","catalytic activity on HLA-DR1, dose-activity curves of T-cell stimulation",HLA-DR1 (DRB1*0101),corresponds approximately to that of adamantylethanol
dichlorophenylhydroxyiminoacetamide [DPHIA],catalytic activity in the ELISA,[1],similarly good results as AdaEtOH
same,toxicity,L57.23 cells,even lower toxic effects than AdaEtOH or 4-HBP
CCCO [n-propanol],concentration required for use,MHC class II,over 200 mM
Oc1ccccc1-c1ccccc1 [2-HBP],"relative increase in the load, amount doubled",[1]; 0.05 mM + same concentration of the same catalyst,increases
same,relative increase in the load,"[1]; 0.05 mM catalyst + 1% DMSO, 40 minutes",about 10%
"OCC(O)CNc1ccccc1 (stereo not drawn) [III 36, 3-N-phenylaminopropanediol]",acceleration of the loading of MHC molecules with peptide ligands,[2],able to accelerate the loading of MHC molecules with peptide ligands
same,activity compared with pCP,[2],markedly lower than that of pCP
"NNC(=O)c1cc(C23CC4CC(CC(C4)C2)C3)n[nH]1 [AdCaPy, 3-(1-adamantyl)-5-carbohydrazide pyrazole]","loading of cells with HA306-318, dose-activity curves compared with pCP",[3],substantially more active than pCP
same,immune response of HLA-DR1-restricted T-cells,HLA-DR1 (DRB1*0101); HA306-318 (EvHA/X5) or CO260-273 (hCII19.3) loaded onto 721.221 cells,markedly enhanced
same,"loading of cells with HA306-318, dose-activity curves compared with pCP",[4],substantially more active than pCP
"COc1ccc2c(c1)OCC2=NO [#3651, 6-methoxybenzofuran-3(2H)-one-oxime]","catalytic activity on HLA-DR1, dose-activity curves of T-cell stimulation",HLA-DR1 (DRB1*0101),weaker but still exhibits higher activity than pCP
"Oc1cc(Cl)c(Cl)cc1O [DCC, 1,2-dichloro-4,5-dihydroxybenzene, reference compound]","catalytic activity of phenol/aniline compounds, comparison of dose-activity curves","[1]; accelerated loading of soluble HLA-DR1 with HA306-318, compared with pCP",slightly increased activity
same,load signal (threshold value of library analysis),[5],"15,000 counted events"
